{"source": "patent US8815262B2", "about": "“Pharmaceutical composition and preparation for oral administration” (FUJIFILM Corporation, priority 2010, dated 2014)", "origin": "cited, not measured here", "settings": "oral administration", "data": [{"smiles": "CC(=O)O[C@H]1C(=O)[C@@]2(C)[C@H]([C@H](OC(=O)c3ccccc3)[C@]3(O)C[C@H](OC(=O)[C@H](O)[C@@H](NC(=O)c4ccccc4)c4ccccc4)C(C)=C1C3(C)C)[C@]1(OC(C)=O)CO[C@@H]1C[C@@H]2O", "note": "[paclitaxel]", "values": [{"measurement": "bioavailability", "value": "≤ 4", "unit": "%"}]}]}
